Measured values taken from ChEMBL document CHEMBL1201862, “PubChem BioAssay data set” (2004).
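Tested at 5 concentrations; 48 h exposure; 96-well plates; endpoints linearly interpolated, else capped at highest concentration. GI50 is the concentration that inhibits growth by half.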 The source made the active and inactive calls. Cut-off read from the data, not from the text of the source: active = GI50 up to about 1.1 µM and inactive = higher.

Experiments:
Experiment in all cases: inhibition of tumour cell growth, NCI panel, 48 h
[1] = test system: CCRF-CEM
[2] = test system: K562
[3] = test system: ACHN
[4] = test system: UO-31
[5] = test system: HCC 2998
[6] = test system: SNB-78
[7] = test system: NCI-H226
[8] = test system: SK-MEL-2
[9] = test system: TK-10
[10] = test system: UACC-62
[11] = test system: Malme-3M
[12] = test system: HL-60
[13] = test system: A498
[14] = test system: SNB-19
[15] = test system: NCI-H460
[16] = test system: DMS-273
[17] = test system: DU-145
[18] = test system: NCI/ADR-RES
[19] = test system: Hs-578T
[20] = test system: MDA-N

| SMILES | GI50 [1] | GI50 [2] | GI50 [3] | GI50 [4] | GI50 [5] | GI50 [6] | GI50 [7] | GI50 [8] | GI50 [9] | GI50 [10] | GI50 [11] | GI50 [12] | GI50 [13] | GI50 [14] | GI50 [15] | GI50 [16] | GI50 [17] | GI50 [18] | GI50 [19] | GI50 [20] |
| --- | --- | --- | --- | --- | --- | --- | --- | --- | --- | --- | --- | --- | --- | --- | --- | --- | --- | --- | --- | --- |
| O=C(Cc1ccccc1)N/N=C(\C1=Nc2ccc([N+](=O)[O-])cc2NC1O)C(O)c1ccc([N+](=O)[O-])cc1 (centres undefined) | 13.8 µM (inactive) | 28.2 µM (inactive) | 78 µM (inactive) | 52.8 µM (inactive) | 99.5 µM (inactive) | > 100 µM (inactive) | > 100 µM (inactive) | > 100 µM (inactive) | > 100 µM (inactive) | 54 µM (inactive) | > 100 µM (inactive) | 19.9 µM (inactive) | > 100 µM (inactive) | > 100 µM (inactive) | > 100 µM (inactive) |  |  |  |  |  |
| CN(C)CCNC(=O)c1cccc2c1nc(-c1ccncc1)c1ccccc12 | 2.4 µM (inactive) | 3.14 µM (inactive) | 1.65 µM (inactive) | 1.63 µM (inactive) | 2.6 µM (inactive) | 5.9 µM (inactive) | 1.95 µM (inactive) | 6.12 µM (inactive) | 2.21 µM (inactive) | 1.88 µM (inactive) |  | 1.36 µM (inactive) | 1.15 µM (inactive) | 3.94 µM (inactive) | 0.0408 µM (active) | 0.767 µM (active) |  |  |  |  |
| CC1=NN(C(=O)Cc2ccccc2)C(=O)/C1=C\c1ccco1 | > 100 µM (inactive) | > 100 µM (inactive) | > 100 µM (inactive) | > 100 µM (inactive) | > 100 µM (inactive) | > 100 µM (inactive) | > 100 µM (inactive) | > 100 µM (inactive) | > 100 µM (inactive) |  | > 100 µM (inactive) | > 100 µM (inactive) |  | > 100 µM (inactive) |  | > 100 µM (inactive) |  |  |  |  |
| Cc1cnc2nc(-c3ccc(Cl)cc3)cc(O)c2c1 | 4.44 µM (inactive) | 1.07 µM (active) | 6.21 µM (inactive) | 8.59 µM (inactive) | 11.4 µM (inactive) |  | 13.2 µM (inactive) | 5.82 µM (inactive) | 43.2 µM (inactive) | 5.5 µM (inactive) | 8.61 µM (inactive) | 1.87 µM (inactive) | 5.48 µM (inactive) | 5.35 µM (inactive) | 3.47 µM (inactive) |  | 11.1 µM (inactive) | 6.1 µM (inactive) | 6.7 µM (inactive) | 0.959 µM (active) |
| COc1ccc2oc3c4c2c1CCC4CCC3=O (centres undefined) | > 100 µM (inactive) | > 100 µM (inactive) | > 100 µM (inactive) | 25.2 µM (inactive) | > 100 µM (inactive) | > 100 µM (inactive) |  | > 100 µM (inactive) | 5.47 µM (inactive) | > 100 µM (inactive) | > 100 µM (inactive) | > 100 µM (inactive) | 6.75 µM (inactive) | > 100 µM (inactive) | > 100 µM (inactive) | > 100 µM (inactive) |  |  |  |  |
| O=C(O)CNS(=O)(=O)c1ccc(NCc2ccccc2)cc1 | > 100 µM (inactive) | > 100 µM (inactive) | > 100 µM (inactive) | > 100 µM (inactive) | > 100 µM (inactive) | > 100 µM (inactive) | > 100 µM (inactive) | > 100 µM (inactive) | > 100 µM (inactive) | > 100 µM (inactive) | > 100 µM (inactive) |  |  | > 100 µM (inactive) | > 100 µM (inactive) | > 100 µM (inactive) |  |  |  |  |
| COc1ccc(C(=O)Cc2c(C(=O)c3ccccc3)c3ccccc3n2C(=O)c2ccccc2)cc1 | 46.6 µM (inactive) | 51.3 µM (inactive) | 53 µM (inactive) | 32.9 µM (inactive) | > 100 µM (inactive) |  | > 100 µM (inactive) | > 100 µM (inactive) | > 100 µM (inactive) | 94 µM (inactive) | > 100 µM (inactive) | 38.3 µM (inactive) |  | 92 µM (inactive) | 26.4 µM (inactive) | 5.38 µM (inactive) |  |  |  |  |
